Tests used:
blood glucose level = experiment: Glucose tolerance test after 8 weeks of diet (Example 4); format: in vivo, mouse; conditions: 10 mg/kg per day orally
From the text: In view of the above, Example 4 discussed whether it is possible to evaluate induction of leptin resistance by measuring a change in blood glucose level by the glucose tolerance test as a reference index. At the same time, Example 4 discussed whether administration of flurbiprofen can prevent induction of leptin resistance, by measuring a change in blood glucose level by the glucose tolerance test as a reference index. Specifically, 4 weeks-old mice (C57BL/6 Cr Slc) were divided into four groups each consisting of 14-16 mice. Mice of individual groups were given diets as follows for 8 weeks similarly with Example 3. • Group 1: Normal diet (10 kcal % fat) only • Group 2: High-fat diet (60 kcal % fat) only • Group 3: Normal diet+flurbiprofen • Group 4: High-fat diet+flurbiprofen Flurbiprofen (F8514, produced by SIGMA) was diluted with drinking water so that the administration amount of flurbiprofen would be 10 mg/kg per day, and was orally administered to the mice in the form of drinking water. […] In Example 4, mice were fasted overnight for 17 hours, and fasted blood glucose level (pre) was measured by Freestyle freedom (NIPRO CORPORATION, blood glucose self-monitoring system) at 10:00 a.m. […] Blood glucose level was measured by Freestyle freedom (NIPRO CORPORATION, blood glucose self-monitoring system) 30 minutes, 1 hour, and 2 hours after the administration. […]

GRP78 and CHOP = conditions: described in Patent Literature 1; cited from earlier work
mice = experiment: Amount of mice water intake (Example 12); format: in vivo, mouse; conditions: 10 mg/kg per day orally in drinking water; normal or high-fat diet
Method: In order to measure the amount of mice water intake, 4 weeks-old male mice (C57BL/6 Cr Slc) were divided into four groups (each consisting of 7-8 mice), were isolated from one another so that there would be one mouse per cage. The mice were then habituated for 2 days. The amount of mice water intake was measured every 24 hours for 4 days from the forenoon on the second day of the habituation, and the amount of mice water intake for 4 days was summed up. • Group 1: Normal diet (10 kcal % fat) only • Group 2: High-fat diet (60 kcal % fat) only • Group 3: Normal diet+flurbiprofen • Group 4: High-fat diet+flurbiprofen Flurbiprofen (F8514, produced by SIGMA) was diluted with drinking water so that the administration amount of flurbiprofen would be 10 mg/kg per day, and was orally administered to the mice in the form of drinking water. FIG. 18 is a graph showing the result of the measurement of the amount of mice water intake. Values in the graph of FIG. 18 are averages of the total amounts (g) of water intake of mice of each group for 4 days (± their standard deviations) (n=7-8 with respect to each group). Further, statistic analysis was carried out using t-test.

[1] = test system: mice given high-fat diet (leptin resistance); experiment: Leptin-induced inhibition of food intake (Example 7); format: in vivo, mouse; conditions: Group 4 (high-fat diet+flurbiprofen); 10 mg/kg per day orally, 8 weeks; leptin 0.5 mg/kg i.p.; no significant difference vs Group 1
Method: Specifically, 4 weeks-old male mice (C57BL/6 Cr Slc) were divided into four groups each consisting of 6-8 mice. Mice of individual groups were given diets as follows for 8 weeks similarly with Example 5. • Group 1: Normal diet (10 kcal % fat) only • Group 2: High-fat diet (60 kcal % fat) only • Group 3: Normal diet+flurbiprofen • Group 4: High-fat diet+flurbiprofen
Flurbiprofen (F8514, produced by SIGMA) was diluted with drinking water so that the administration amount of flurbiprofen would be 10 mg/kg per day, and was orally administered to the mice in the form of drinking water.
FIG. 11 is a drawing showing the procedure of the test in Example 7. […] The mice were then habituated for 3 days. Day 0 was the date when the isolation started. In order to eliminate the influence of injection on feeding behavior, 5 mL/kg of physiological saline was intraperitoneally (i.p.) administered as dummy on Days 3 and 4. […]
Subsequently, 0.5 mg/kg of leptin (498-OB, rmLeptin, produced by R&D systems) was intraperitoneally (i.p.) administered on Day 6 and the amount of food intake up to 24 hours after the leptin administration was measured on Day 7. Using the ratio of the amount of food intake on Days 6 and 7 to the amount of food intake on Days 5 and 6 as a reference index, what influence leptin had on the amount of food intake (rate of change in amount of food intake) was analyzed. […]

[2] = marketed non-steroidal anti-inflammatory agent; cited from earlier work

C[C@@H](C(=O)O)c1ccc(-c2ccccc2)c(F)c1 [flurbiprofen]
blood glucose level in glucose tolerance test (blood glucose level; Group 3 (normal diet+flurbiprofen) vs Group 1 (normal diet)): no significant difference in blood glucose level
blood glucose level in glucose tolerance test (blood glucose level; Group 4 (high-fat diet+flurbiprofen), 1 hour after glucose 2 g/kg i.p., significant difference vs Group 2): rapidly decreased blood glucose level
expression of GRP78 and CHOP induced by endoplasmic reticulum stress (GRP78 and CHOP): prevented
total amount of water intake for 4 days (mice): constant regardless of whether flurbiprofen was administered or not
rate of change in amount of food intake after leptin administration [1]: reduced food intake caused by leptin
dependence and development of resistance [2]: no dependence on flurbiprofen or no development of resistance to flurbiprofen is observed

From patent US9132108B2, “Pharmaceutical composition for ameliorating and/or preventing leptin resistance, and use thereof” (HIROSHIMA UNIVERSITY, priority 2009, dated 2015)
